pIC50: −log10 of the molar value.
Tested on: 857933-349-R-J2-PDC complex spheroid viability
Experiment: Anticancer human tumor 857933-349-R-J2-PDC patient-derived colon adenocarcinoma cell line growth inhibition [POLQ]
Details: for pIC50: curve of first compound; for viability, T/C: stronger effect = lower value
Method: Multicellular complex tumor spheroid response to Polymerase (POL) inhibitors (novobiocin, ART-558, RP6685) in combination with a variety of drugs and investigational agents in selected tumor cell lines
The POL inhibitors (novobiocin, ART-558, and RP6685) were evaluated both individually and in combination with standard of care and investigational anticancer small molecules within a complex spheroid model of solid tumors. . Complex spheroids include a stromal component modeled by human endothelial cells (HUVEC) and fibroblasts modeled by human mesenchymal stem cells (MSCs). The concentration ranges selected for each drug and investigational agent were based upon clinically achievable concentrations if the clinical Cmax of the agent was known.
Compounds. The drugs and investigational agents: novobiocin (NSC847541), ART-558 (NSC835418), RP-6685 (NSC848927), peposertib (NSC802822), ceralasertib (NSC780249), elimusertib (NSC800525), camonsertib (NSC841442), AZD-1390 (NSC803789), olaparib (NSC753686), talazoparib (NSC767125), rucaparib (NSC756644), sotorasib (NSC818433), MRTX-1133 (NSC836407), SN-38 (NSC673596), topotecan (NSC609699), epotoside (NSC141540), doxorubicin (NSC123127), gemcitabine (NSC613327), 5-fluorouracil (NSC19893), paclitaxel (NSC125973), vemurafenib (NSC761431), MSA-2 (NSC828583), SN-011 (NSC837082), adavosertib (NSC754352), prexasertib (NSC758257), carboplatin (NSC241240) and oxaliplatin (NSC266046), were obtained from the National Cancer Institute (NCI) Developmental Therapeutics Program Chemical Repository (21). The FDA-approved anticancer drug set is available from the Developmental Therapeutics Program at https://dtp.cancer.gov/organization/dscb/obtaining/. […] The stock solutions were prepared in dimethyl sulfoxide (DMSO, Sigma-Aldrich, St. Louis, MO, cat. D2650), except for the platinum compounds which were prepared in saline (Quality Biological, Gaithersburg, MD, cat. 114-055-101), at 800-fold the tested concentration and stored at -70 degrees C prior to their use. All drugs and investigational agents were tested over a range starting from a high concentration at or near the clinical Cmax and decreasing in half-log increments. If the clinical Cmax for an agent had not been determined, the highest concentration tested was 10 microM, except for SN-38, which was tested at a high concentration of 1 microM.
Cell Culture. All cells were maintained in an incubator at 37 degrees C and 5% CO2 with 95% humidity. The PDC lines were cultured according to standard operating procedures established by the NCI PDMR (https://pdmr.cancer.gov). Table 3 of the manuscript, lists the cell lines along with the number of the three cell types plated to form the mct-spheroids and media for tumor cell growth. After thawing, all PDC lines, except 997537-175-T-J1-PDC and 415267-285-R-J2-PDC, were cultured in Matrigel-coated flasks prepared with a working solution of 1X Ham's F-12 nutrient mix, without supplementation (Thermo Fisher Scientific, cat. 11765054), 100 U/mL penicillin-streptomycin (Thermo Fisher Scientific, cat. 15140122), and 2.5% Matrigel (Corning Inc., Corning, NY, cat. 354248) for the first three passages. The two PDC lines 997537-175-T-J1-PDC and 415267-285-R-J2-PDC were cultured on uncoated flasks. The 857933-349-R-J2-PDC line was cultured in 6C/Colon 1B media containing advanced DMEM/F-12 (Thermo Fisher Scientific, cat. 12634028), 10 mM HEPES (Thermo Fisher Scientific, cat. 15630080), 1X GlutaMAX supplement (Thermo Fisher Scientific, cat. 35050061), 0.1 mg/mL primocin (InvivoGen, San Diego, CA, cat. ant-pm-2), 10% defined fetal bovine serum, heat inactivated (HyClone Laboratories Inc., Logan, UT, cat. SH30070.03HI), 50% L-WRN conditioned media (ATCC, cat. CRL-3276), 1.25 mM N-Acetyl-L-cysteine (Sigma-Aldrich, cat. A9165), 10 mM nicotinamide (Sigma-Aldrich, cat. N0636), 1X B-27 supplement (Thermo Fisher Scientific, cat. 17504044), 1X N-2 supplement (Thermo Fisher Scientific, cat. […]
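Further: spheroids exposed to compounds for seven days before readout.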

Compound `COc1cc(C2c3cc4c(cc3C(OC3OC5COC(C)OC5C(O)C3O)C3COC(=O)C23)OCO4)cc(OC)c1O` (configuration not stated) + Cc1cccc(N(C)C(=O)C2C(O)CCN2c2nc(C)cc(C(F)(F)F)c2C#N)c1 has a pIC50 (second compound 0.0316 µM) of 6.14, a pIC50 (second compound 0.1 µM) of 6.26 and a pIC50 (second compound 0.316 µM) of 6.10. For the same compound, the pIC50 (second compound 1 µM) was 6.27, the pIC50 (second compound 3.16 µM) was 6.62 and the pIC50 (second compound 10 µM) was 6.49. For the same compound, the viability, T/C (second compound 0.0316 µM, first compound 0.0316 µM) was 86.1%, the viability, T/C (second compound 0.0316 µM, first compound 0.1 µM) was 81.9% and the viability, T/C (second compound 0.0316 µM, first compound 0.316 µM) was 60%. The viability, T/C (second compound 0.0316 µM, first compound 1 µM) was 47%, the viability, T/C (second compound 0.0316 µM, first compound 3.16 µM) was 37.1% and the viability, T/C (second compound 0.0316 µM, first compound 10 µM) was 33.9%. For the same compound, the viability, T/C (second compound 0.1 µM, first compound 0.0316 µM) was 111%, the viability, T/C (second compound 0.1 µM, first compound 0.1 µM) was 92.6% and the viability, T/C (second compound 0.1 µM, first compound 0.316 µM) was 51.5%. For the same compound, the viability, T/C (second compound 0.1 µM, first compound 1 µM) was 49.3%, the viability, T/C (second compound 0.1 µM, first compound 3.16 µM) was 42.4% and the viability, T/C (second compound 0.1 µM, first compound 10 µM) was 27.2%. It also gave a viability, T/C (second compound 0.316 µM, first compound 0.0316 µM) of 83.2%, a viability, T/C (second compound 0.316 µM, first compound 0.1 µM) of 83% and a viability, T/C (second compound 0.316 µM, first compound 0.316 µM) of 60%. It also gave a viability, T/C (second compound 0.316 µM, first compound 1 µM) of 49.9%, a viability, T/C (second compound 0.316 µM, first compound 3.16 µM) of 36% and a viability, T/C (second compound 0.316 µM, first compound 10 µM) of 35.2%. The viability, T/C (second compound 1 µM, first compound 0.0316 µM) was 86.5%, the viability, T/C (second compound 1 µM, first compound 0.1 µM) was 68.5% and the viability, T/C (second compound 1 µM, first compound 0.316 µM) was 60.4%. It also gave a viability, T/C (second compound 1 µM, first compound 1 µM) of 40%, a viability, T/C (second compound 1 µM, first compound 3.16 µM) of 36.5% and a viability, T/C (second compound 1 µM, first compound 10 µM) of 34.7%. For the same compound, the viability, T/C (second compound 3.16 µM, first compound 0.0316 µM) was 72.3%, the viability, T/C (second compound 3.16 µM, first compound 0.1 µM) was 80.5% and the viability, T/C (second compound 3.16 µM, first compound 0.316 µM) was 41.6%. The viability, T/C (second compound 3.16 µM, first compound 1 µM) was 36%, the viability, T/C (second compound 3.16 µM, first compound 3.16 µM) was 38% and the viability, T/C (second compound 3.16 µM, first compound 10 µM) was 33.4%. For the same compound, the viability, T/C (second compound 10 µM, first compound 0.0316 µM) was 79.1%, the viability, T/C (second compound 10 µM, first compound 0.1 µM) was 66% and the viability, T/C (second compound 10 µM, first compound 0.316 µM) was 49.1%. For the same compound, the viability, T/C (second compound 10 µM, first compound 1 µM) was 40.9%, the viability, T/C (second compound 10 µM, first compound 3.16 µM) was 37.9% and the viability, T/C (second compound 10 µM, first compound 10 µM) was 33.3%.

— PubChem BioAssay AID1963836 (Molecular Pharmacology Branch, DTP, NCI, 2024)
